Laboratory results: ChEMBL document CHEMBL1147597, “Synthesis and biological evaluations of novel benzimidazoles as potential antibacterial agents” (Bioorg Med Chem Lett, 2004)
Converted amounts (≈) assume the structure as drawn. Each block holds one molecule with its values, some of them ahead of it.

Key:
Escherichia coli [1] = experiment: Minimal inhibitory concentration against Escherichia coli (Range is 50-100 uM); assay type: functional
Staphylococcus aureus [2] = experiment: Minimal inhibitory concentration against Staphylococcus aureus (Range is 25-50 uM); assay type: functional
Escherichia coli [3] = experiment: Minimal inhibitory concentration against Escherichia coli; assay type: functional
Staphylococcus aureus [4] = experiment: In vitro minimal inhibitory concentration against Staphylococcus aureus.; assay type: functional
Proteus vulgaris [5] = experiment: Minimal inhibitory concentration against gram negative Proteus vulgaris 8427 strain (Range is 12-25 uM); assay type: functional
Streptococcus pyogenes = experiment: Minimal inhibitory concentration against gram positive Streptococcus pyogenes 49399 strain (Range is 6-12 uM); assay type: functional
Streptococcus pneumoniae = experiment: Minimal inhibitory concentration against gram positive Streptococcus pneumoniae 6303 strain (Range is 12-25 uM); assay type: functional
Bacteria = experiment: Inhibitory activity against bacteria in the transcription/translation assay; assay type: functional, organism-based
Pseudomonas aeruginosa [6] = experiment: Minimal inhibitory concentration against gram negative Pseudomonas aeruginosa 25416 strain; assay type: functional
Staphylococcus aureus [7] = experiment: Minimal inhibitory concentration against gram positive Staphylococcus aureus 13709 strain (Range is 6-12 uM); assay type: functional
Escherichia coli [8] = experiment: Minimal inhibitory concentration against Escherichia coli (Range is 12-25 uM); assay type: functional
Escherichia coli [9] = experiment: Minimal inhibitory concentration against gram negative Escherichia coli 25922 strain (Range is 12-25 uM); assay type: functional; details: ATCC25922
Klebsiella pneumoniae [10] = experiment: Minimal inhibitory concentration against gram negative Klebsiella pneumoniae 13383 strain (Range is 25-50 uM); assay type: functional
Enterococcus hirae [11] = experiment: Minimal inhibitory concentration against gram positive Enterococcus hirae 29212 strain (Range is 3-6 uM); assay type: functional
Staphylococcus aureus [12] = experiment: Minimal inhibitory concentration against Staphylococcus aureus (Range is 6-12 uM); assay type: functional
Staphylococcus aureus [13] = experiment: Minimal inhibitory concentration against Staphylococcus aureus (Range is 50-100 uM); assay type: functional
Staphylococcus aureus [14] = experiment: Minimal inhibitory concentration against Staphylococcus aureus (Range is 12-25 uM); assay type: functional
Escherichia coli [15] = experiment: Minimal inhibitory concentration against gram negative Escherichia coli 25922 strain (Range is 25-50 uM); assay type: functional; details: ATCC25922
Proteus vulgaris [16] = experiment: Minimal inhibitory concentration against gram negative Proteus vulgaris 8427 strain; assay type: functional
Escherichia coli [17] = experiment: Minimal inhibitory concentration against Escherichia coli (Range is 25-50 uM); assay type: functional
Enterococcus hirae [18] = experiment: Minimal inhibitory concentration against gram positive Enterococcus hirae 29212 strain (Range is 1-3 uM); assay type: functional
Klebsiella pneumoniae [19] = experiment: Minimal inhibitory concentration against gram negative Klebsiella pneumoniae 13383 strain (Range is 12-25 uM); assay type: functional
Pseudomonas aeruginosa [20] = experiment: Minimal inhibitory concentration against gram negative Pseudomonas aeruginosa 25416 strain (Range is 50-100 uM); assay type: functional
Escherichia coli [21] = experiment: Minimal inhibitory concentration against gram negative Escherichia coli 25922 strain; assay type: functional; details: ATCC25922
Proteus vulgaris [22] = experiment: Minimal inhibitory concentration against gram negative Proteus vulgaris 8427 strain (Range is 25-50 uM); assay type: functional
Escherichia coli [23] = experiment: Minimal inhibitory concentration against Escherichia coli (Range is 3-6 uM); assay type: functional
Staphylococcus aureus [24] = experiment: Minimal inhibitory concentration against Staphylococcus aureus (Range is 1-3 uM); assay type: functional

MIC (Escherichia coli [1]): 100 µM (≈ 56.5 µg/mL)
MIC (Staphylococcus aureus [2]): 50 µM (≈ 28.2 µg/mL)
Compound: O=C1c2cc(Cl)c([N+](=O)[O-])cc2C(=O)N1CCCCCn1c(C2CCNCC2)nc2cc(Cl)c(Cl)cc21

MIC (Escherichia coli [3]): > 100 µM
MIC (Staphylococcus aureus [4]): > 100 µM
Compound: Clc1cc2nc(SCCCCn3c(C4CCNCC4)nc4cc(Cl)c(Cl)cc43)[nH]c2cc1Cl

MIC (Escherichia coli [1]): 100 µM (≈ 50.5 µg/mL)
MIC (Staphylococcus aureus [2]): 50 µM (≈ 25.3 µg/mL)
Compound: O=C(Cn1c(C2CCNCC2)nc2cc(Cl)c(Cl)cc21)NNC(=O)Nc1ccc2c(c1)OCO2

MIC (Escherichia coli [3]): > 100 µM
MIC (Staphylococcus aureus [2]): 50 µM (≈ 23.5 µg/mL)
Compound: O=C(Cn1c(C2CCNCC2)nc2cc(Cl)c(Cl)cc21)N/N=C/c1c[nH]c2ccccc12

MIC (Proteus vulgaris [5]): 25 µM (≈ 13 µg/mL)
MIC (Streptococcus pyogenes): 12 µM (≈ 6.23 µg/mL)
MIC (Streptococcus pneumoniae): 25 µM (≈ 13 µg/mL)
IC50 (Bacteria): > 100 µM
MIC (Pseudomonas aeruginosa [6]): > 100 µM
MIC (Staphylococcus aureus [7]): 12 µM (≈ 6.23 µg/mL)
MIC (Escherichia coli [8]): 25 µM (≈ 13 µg/mL)
MIC (Escherichia coli [9]): 25 µM (≈ 13 µg/mL)
MIC (Klebsiella pneumoniae [10]): 50 µM (≈ 26 µg/mL)
MIC (Enterococcus hirae [11]): 6 µM (≈ 3.12 µg/mL)
MIC (Staphylococcus aureus [12]): 12 µM (≈ 6.23 µg/mL)
Compound: O=C(Cn1c(C2CCNCC2)nc2cc(Cl)c(Cl)cc21)NNC(=O)NC12C[C@H]3C[C@@H](C1)C[C@@H](C2)C3

MIC (Staphylococcus aureus [13]): 100 µM (≈ 42 µg/mL)
MIC (Escherichia coli [3]): > 100 µM
Compound: O=C(Cn1c(C2CCNCC2)nc2cc(Cl)c(Cl)cc21)N/N=C/c1c[nH]cn1

MIC (Escherichia coli [3]): > 100 µM
MIC (Staphylococcus aureus [14]): 25 µM (≈ 12 µg/mL)
Compound: O=C(Cn1c(C2CCNCC2)nc2cc(Cl)c(Cl)cc21)N/N=C/c1ccc(O)c(O)c1O

MIC (Escherichia coli [15]): 50 µM (≈ 26.1 µg/mL)
MIC (Streptococcus pyogenes): 12 µM (≈ 6.26 µg/mL)
MIC (Streptococcus pneumoniae): 25 µM (≈ 13 µg/mL)
IC50 (Bacteria): > 100 µM
MIC (Pseudomonas aeruginosa [6]): > 100 µM
MIC (Staphylococcus aureus [7]): 12 µM (≈ 6.26 µg/mL)
MIC (Proteus vulgaris [16]): > 100 µM
MIC (Escherichia coli [17]): 50 µM (≈ 26.1 µg/mL)
MIC (Enterococcus hirae [18]): 3 µM (≈ 1.56 µg/mL)
MIC (Staphylococcus aureus [12]): 12 µM (≈ 6.26 µg/mL)
MIC (Klebsiella pneumoniae [19]): 25 µM (≈ 13 µg/mL)
Compound: COc1cc(NC(=O)NNC(=O)Cn2c(C3CCNCC3)nc3cc(Cl)c(Cl)cc32)cc(OC)c1

MIC (Escherichia coli [3]): > 100 µM
MIC (Staphylococcus aureus [4]): > 100 µM
Compound: O=C1CCC(=O)N1CCCCCn1c(C2CCNCC2)nc2cc(Cl)c(Cl)cc21

MIC (Staphylococcus aureus [13]): 100 µM (≈ 46.1 µg/mL)
MIC (Escherichia coli [3]): > 100 µM
Compound: O=C(Cn1c(C2CCNCC2)nc2cc(Cl)c(Cl)cc21)NNC(=O)Nc1ccccc1

MIC (Escherichia coli [3]): > 100 µM
MIC (Staphylococcus aureus [2]): 50 µM (≈ 25.3 µg/mL)
Compound: COc1cc(/C=N/NC(=O)Cn2c(C3CCNCC3)nc3cc(Cl)c(Cl)cc32)cc(O)c1OC

MIC (Escherichia coli [3]): > 100 µM
MIC (Staphylococcus aureus [2]): 50 µM (≈ 24.1 µg/mL)
Compound: O=C(Cn1c(C2CCNCC2)nc2cc(Cl)c(Cl)cc21)N/N=C/c1ccc2ccccc2n1

MIC (Streptococcus pyogenes): 12 µM (≈ 6.37 µg/mL)
MIC (Streptococcus pneumoniae): 25 µM (≈ 13.3 µg/mL)
IC50 (Bacteria): > 100 µM
MIC (Staphylococcus aureus [7]): 12 µM (≈ 6.37 µg/mL)
MIC (Pseudomonas aeruginosa [20]): 100 µM (≈ 53.1 µg/mL)
MIC (Escherichia coli [3]): > 100 µM
MIC (Klebsiella pneumoniae [10]): 50 µM (≈ 26.5 µg/mL)
MIC (Enterococcus hirae [18]): 3 µM (≈ 1.59 µg/mL)
MIC (Staphylococcus aureus [12]): 12 µM (≈ 6.37 µg/mL)
MIC (Escherichia coli [21]): > 100 µM
MIC (Proteus vulgaris [22]): 50 µM (≈ 26.5 µg/mL)
Compound: O=C(Cn1c(C2CCNCC2)nc2cc(Cl)c(Cl)cc21)N/N=C/c1cnn(-c2ccccc2)c1Cl

MIC (Escherichia coli [1]): 100 µM (≈ 47.7 µg/mL)
MIC (Staphylococcus aureus [2]): 50 µM (≈ 23.9 µg/mL)
Compound: O=C(Cn1c(C2CCNCC2)nc2cc(Cl)c(Cl)cc21)NNC(=S)Nc1ccccc1

MIC (Escherichia coli [3]): > 100 µM
MIC (Staphylococcus aureus [2]): 50 µM (≈ 25.3 µg/mL)
Compound: O=C(Cn1c(C2CCNCC2)nc2cc(Cl)c(Cl)cc21)NNC(=O)Nc1ccc([N+](=O)[O-])cc1

MIC (Escherichia coli [3]): > 100 µM
MIC (Staphylococcus aureus [2]): 50 µM (≈ 25.7 µg/mL)
Compound: O=C(Cn1c(C2CCNCC2)nc2cc(Cl)c(Cl)cc21)N/N=C/c1cccc(OC(F)(F)F)c1

MIC (Escherichia coli [3]): > 100 µM
MIC (Staphylococcus aureus [4]): > 100 µM
Compound: O=C1c2cc3ccccc3cc2C(=O)N1CCCCCn1c(C2CCNCC2)nc2cc(Cl)c(Cl)cc21

MIC (Escherichia coli [3]): > 100 µM
MIC (Staphylococcus aureus [4]): > 100 µM
Compound: O=C1c2ccccc2C(=O)N1CCCn1c(C2CCNCC2)nc2cc(Cl)c(Cl)cc21

MIC (Staphylococcus aureus [13]): 100 µM (≈ 45.7 µg/mL)
MIC (Escherichia coli [17]): 50 µM (≈ 22.9 µg/mL)
Compound: Clc1cc2nc(C3CCNCC3)n(CCCCCN3Cc4ccccc4C3)c2cc1Cl

MIC (Escherichia coli [17]): 50 µM (≈ 33.5 µg/mL)
MIC (Staphylococcus aureus [2]): 50 µM (≈ 33.5 µg/mL)
Compound: CC(C)c1ccc2c(c1)CCC1C(C)(C/N=C(\S)NNC(=O)Cn3c(C4CCNCC4)nc4cc(Cl)c(Cl)cc43)CCC[C@]21C (some centres not stated)

MIC (Escherichia coli [3]): > 100 µM
MIC (Staphylococcus aureus [2]): 50 µM (≈ 23.8 µg/mL)
Compound: O=C(Cn1c(C2CCNCC2)nc2cc(Cl)c(Cl)cc21)N/N=C/c1cccc([N+](=O)[O-])c1

MIC (Escherichia coli [3]): > 100 µM
MIC (Staphylococcus aureus [4]): > 100 µM
Compound: O=C(Cn1c(C2CCNCC2)nc2cc(Cl)c(Cl)cc21)N/N=C/c1ccccn1

MIC (Escherichia coli [3]): > 100 µM
MIC (Staphylococcus aureus [4]): > 100 µM
Compound: O=C1c2ccccc2C(=O)N1CCCCn1c(C2CCNCC2)nc2cc(Cl)c(Cl)cc21

MIC (Escherichia coli [3]): > 100 µM
MIC (Staphylococcus aureus [4]): > 100 µM
Compound: O=C(Cn1c(C2CCNCC2)nc2cc(Cl)c(Cl)cc21)N/N=C/c1ccncc1

Compound: NC[C@@H]1O[C@H](O[C@H]2[C@@H](O)[C@H](O[C@@H]3[C@@H](O)[C@H](N)C[C@H](N)[C@H]3O[C@H]3O[C@H](CO)[C@@H](O)[C@H](O)[C@H]3N)O[C@@H]2CO)[C@H](N)[C@@H](O)[C@@H]1O [PAROMOMYCIN]
MIC (Escherichia coli [23]): 6 µM (≈ 3.69 µg/mL)
MIC (Staphylococcus aureus [24]): 3 µM (≈ 1.85 µg/mL)
